Data taken from PMC10770036, “Novel dual inhibitors of PARP and HDAC induce intratumoral STING-mediated antitumor immunity in triple-negative breast cancer” (Cell Death & Disease, 2024).

Key:
CCL5 and CXCL10 mRNA = assay: RT-PCR of CCL5 and CXCL10 mRNA; format: cell-based, human; conditions: MDA-MB-436 and MDA-MB-468 cells, 48 h
Experimental: Total RNA was extracted using the Eastep Super Total RNA Extraction Kit (Promega, Charbonnières, France) according to the manufacturer’s protocol. Reverse transcription was performed using HyperScript RT SuperMix for qPCR (APExBIO, Houston, TX, USA). Gene expression was quantified with Hieff qPCR SYBR Green Master Mix (Yeason) on an ABI 7500 (Applied Biosystems, Grand Island, NY, USA). Data were then analyzed using the 2^-ΔΔCT method. The primers were designed and synthesized by Sangon Biotech, and the sequences are shown in Supporting Information Table S1.

MDA-MB-231 cells = assay: MTT cell viability assay, MDA-MB-231; conditions: Homo sapiens, MDA-MB-231, 72 h, read-out: IC50 MDA-MB-231
Experimental: (§3) The viability assay was measured by a 3-(4,5-dimethylthiazol-2-yl)−2,5-diphenyltetrazolium bromide (MTT) assay.
(§4) In brief, cells were seeded at a density of 6,000 cells in 96-well plates and cultured overnight. […] After aspiration of the medium, the formazan crystals were dissolved in 100 μL of DMSO. The absorbance at 490 nm was measured using a microplate reader (BioTek). All these analyses were performed at least three times.

MDA-MB-468 cells = assay: MTT cell viability assay, MDA-MB-468; conditions: Homo sapiens, MDA-MB-468, 72 h, read-out: IC50 MDA-MB-468
Experimental: as §3, §4

MCF-7 cells = assay: MTT cell viability assay, MCF-7; conditions: Homo sapiens, MCF7, 72 h, read-out: IC50 MCF-7
Experimental: as §3, §4

MCF-10A cells = assay: MTT cell viability assay, MCF-10A; conditions: Homo sapiens, 72 h, read-out: IC50 MCF-10A
Experimental: as §3, §4

MDA-MB-436 cells = assay: MTT cell viability assay, MDA-MB-436; conditions: Homo sapiens, MDA-MB-436, 72 h, read-out: IC50 MDA-MB-436
Experimental: as §3, §4

[1] = tested on: MDA-MB-436, MDA-MB-231, and MDA-MB-468 cells; assay: Colony formation assay; format: cell-based, human; conditions: low dose
Experimental: MDA-MB-231, MDA-MB-436 and MDA-MB-468 cells were seeded at a density of 2,000 cells in 6-well plates and cultured overnight. […] The cells were fixed with 4% paraformaldehyde (Merck) for 1 h at room temperature and stained with 0.1% crystal violet (Beyotime Biotechnology) for 30 min. Under an inverted phase contrast microscope (Leica Microsystems, Heidelberg, Germany), cell colonies were photographed at 5× magnification. All these analyses were performed at least three times.

recombinant HDAC6 = molecular target: T1, recombinant HDAC6 (Homo sapiens, UniProt Q9UBN7); assay: HDAC6 inhibition assay (Ac-peptide-AMC fluorescence); format: biochemical
T1 construct: purchased BPS Bioscience
T1 sequence (Q9UBN7 1-1215): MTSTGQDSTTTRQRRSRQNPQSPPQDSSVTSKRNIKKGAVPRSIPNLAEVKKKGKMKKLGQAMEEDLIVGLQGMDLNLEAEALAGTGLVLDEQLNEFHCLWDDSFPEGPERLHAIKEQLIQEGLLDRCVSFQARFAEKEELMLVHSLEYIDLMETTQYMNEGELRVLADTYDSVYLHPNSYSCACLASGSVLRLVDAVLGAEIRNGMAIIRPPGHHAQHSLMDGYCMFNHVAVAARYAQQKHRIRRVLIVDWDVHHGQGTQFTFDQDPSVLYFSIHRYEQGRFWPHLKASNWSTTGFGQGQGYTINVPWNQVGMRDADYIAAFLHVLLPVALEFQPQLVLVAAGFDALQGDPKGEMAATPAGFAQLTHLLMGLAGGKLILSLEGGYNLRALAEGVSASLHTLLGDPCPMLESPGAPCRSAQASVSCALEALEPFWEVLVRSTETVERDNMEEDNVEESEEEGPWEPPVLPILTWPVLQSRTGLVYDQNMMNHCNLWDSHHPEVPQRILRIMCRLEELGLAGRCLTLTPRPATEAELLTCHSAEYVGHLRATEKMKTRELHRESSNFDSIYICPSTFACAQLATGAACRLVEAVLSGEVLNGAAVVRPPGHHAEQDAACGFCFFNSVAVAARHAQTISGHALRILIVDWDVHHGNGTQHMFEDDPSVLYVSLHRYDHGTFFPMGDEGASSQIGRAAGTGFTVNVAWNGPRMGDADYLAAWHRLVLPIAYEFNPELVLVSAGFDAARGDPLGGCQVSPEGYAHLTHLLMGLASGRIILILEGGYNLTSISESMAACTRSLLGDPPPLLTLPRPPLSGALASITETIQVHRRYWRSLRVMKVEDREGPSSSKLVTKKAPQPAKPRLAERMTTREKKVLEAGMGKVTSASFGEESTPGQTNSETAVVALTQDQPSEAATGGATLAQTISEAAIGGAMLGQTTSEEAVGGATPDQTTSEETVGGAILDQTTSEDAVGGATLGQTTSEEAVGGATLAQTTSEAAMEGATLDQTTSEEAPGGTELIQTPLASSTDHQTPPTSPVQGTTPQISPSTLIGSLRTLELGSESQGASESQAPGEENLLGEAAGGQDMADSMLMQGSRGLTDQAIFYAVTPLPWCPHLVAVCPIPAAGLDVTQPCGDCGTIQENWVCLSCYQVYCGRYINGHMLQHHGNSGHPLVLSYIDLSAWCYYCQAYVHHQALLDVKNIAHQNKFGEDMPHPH
Experimental: (§1) The in vitro HDAC inhibition assays were carried out by Sundia MediTech Co. Ltd. in Shanghai, China. […] Reactions were stopped with trypsin, and the samples were incubated for another 90 min at 37 °C. […] IC50 values were obtained using GraphPad Prism software.

recombinant HDAC1 = molecular target: T2, recombinant HDAC1 (Homo sapiens, UniProt Q13547); assay: HDAC1 inhibition assay (Ac-peptide-AMC fluorescence); format: biochemical
T2 construct: purchased Active Motif
Experimental: as §1

PARP2 = molecular target: T3, PARP2 (Homo sapiens, UniProt Q9UGN5); assay: PARP2 enzymatic inhibition assay (PARP2 Colorimetric Assay Kit); format: biochemical
T3 construct: purchased BPS Bioscience 80581
Experimental: (§2) Briefly, the 1× histone mixture was added to each well and incubated overnight at 4 °C. Each well was washed three times with 200 µL 1× TBST buffer and filled with 200 µL Blocking buffer at room temperature for 90 min. Then, each well was filled with 25 µL of PARP master mixture (5 μL activated DNA + 2.5 μL 10× PARP Assay mixture + 2.5 μL 10× PARP buffer + 15 μL distilled water). Next, 5 µL of the compound of different concentrations was added to each well, and PARP enzyme was added and incubated at room temperature for 1 h. Next, streptavidin HRP solution was added and incubated at room temperature for 30 min. After adding 100 µL of colorimetric HRP substrate to each well, the plate was incubated until a blue color developed in the positive well, which contained PARP enzyme without inhibitors. The reaction was then quenched with 2 M sulfuric acid, and absorbance at 450 nm was measured using a microplate reader (BioTek, Winooski, VT, USA). After calculating the inhibition rate, the IC50 value was determined.

PARP1 = molecular target: T4, PARP1 (Homo sapiens, UniProt P09874); assay: PARP1 enzymatic inhibition assay (PARP1 Colorimetric Assay Kit); format: biochemical
T4 construct: purchased BPS Bioscience 80580
Experimental: as §2

RAD51 = assay: Western blot of RAD51 expression in TNBC cells; format: cell-based, human; conditions: alone, 24 h, TNBC cell lines
Experimental: Western blot analysis was performed as previously described, and all western blot analyses were performed at least three times.
Western blot analysis was performed as previously described. Briefly, whole cell or tissue lysates were prepared using ice-cold Nonidet P-40 buffer mixed with protease and phosphatase inhibitors (Roche, IN, USA) and centrifuged at 14,000 × g at 4 °C for 10 min. The protein lysates were fractionated by sodium dodecyl sulfate–polyacrylamide gel electrophoresis (SDS–PAGE) and transferred to polyvinylidene fluoride (PVDF) membranes (Merck, Darmstadt, Germany). Membranes were incubated in 1× TBST buffer containing 5% nonfat powdered milk at room temperature for 2 h. The indicated primary antibody was incubated with PVDF membranes, followed by a washing step using 1× TBST and a secondary antibody conjugated to HRP. Signal detection was carried out using the Western ECL Substrate kit (Bio-Rad, Hercules, CA, USA). […]

T2 sequence (Q13547 whole entry): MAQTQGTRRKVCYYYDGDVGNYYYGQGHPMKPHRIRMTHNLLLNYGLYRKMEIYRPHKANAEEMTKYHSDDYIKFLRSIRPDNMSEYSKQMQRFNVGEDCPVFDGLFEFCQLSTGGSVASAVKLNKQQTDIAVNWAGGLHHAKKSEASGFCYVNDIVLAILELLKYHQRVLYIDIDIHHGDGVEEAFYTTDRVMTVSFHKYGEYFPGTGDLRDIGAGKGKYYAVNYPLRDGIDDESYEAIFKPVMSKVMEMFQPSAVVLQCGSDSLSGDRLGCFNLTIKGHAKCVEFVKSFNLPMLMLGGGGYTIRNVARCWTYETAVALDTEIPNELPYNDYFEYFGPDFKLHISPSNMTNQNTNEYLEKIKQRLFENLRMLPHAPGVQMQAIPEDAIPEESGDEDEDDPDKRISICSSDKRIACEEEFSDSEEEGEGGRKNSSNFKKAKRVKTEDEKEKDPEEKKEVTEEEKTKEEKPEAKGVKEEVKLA
T3 sequence (Q9UGN5 whole entry): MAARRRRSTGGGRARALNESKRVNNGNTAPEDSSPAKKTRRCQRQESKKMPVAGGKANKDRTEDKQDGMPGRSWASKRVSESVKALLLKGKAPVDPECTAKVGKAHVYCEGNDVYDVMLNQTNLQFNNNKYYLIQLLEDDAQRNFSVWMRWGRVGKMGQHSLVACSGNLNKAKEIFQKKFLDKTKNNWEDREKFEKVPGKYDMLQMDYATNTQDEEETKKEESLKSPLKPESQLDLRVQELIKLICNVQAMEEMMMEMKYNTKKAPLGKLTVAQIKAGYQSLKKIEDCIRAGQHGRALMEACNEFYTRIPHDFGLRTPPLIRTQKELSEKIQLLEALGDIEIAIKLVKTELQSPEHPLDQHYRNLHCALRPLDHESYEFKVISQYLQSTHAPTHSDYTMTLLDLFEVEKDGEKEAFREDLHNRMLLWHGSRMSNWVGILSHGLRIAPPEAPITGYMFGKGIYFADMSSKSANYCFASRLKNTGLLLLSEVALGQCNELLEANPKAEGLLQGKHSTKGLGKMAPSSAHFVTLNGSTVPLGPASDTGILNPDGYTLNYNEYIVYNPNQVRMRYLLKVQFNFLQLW
T4 sequence (P09874 whole entry): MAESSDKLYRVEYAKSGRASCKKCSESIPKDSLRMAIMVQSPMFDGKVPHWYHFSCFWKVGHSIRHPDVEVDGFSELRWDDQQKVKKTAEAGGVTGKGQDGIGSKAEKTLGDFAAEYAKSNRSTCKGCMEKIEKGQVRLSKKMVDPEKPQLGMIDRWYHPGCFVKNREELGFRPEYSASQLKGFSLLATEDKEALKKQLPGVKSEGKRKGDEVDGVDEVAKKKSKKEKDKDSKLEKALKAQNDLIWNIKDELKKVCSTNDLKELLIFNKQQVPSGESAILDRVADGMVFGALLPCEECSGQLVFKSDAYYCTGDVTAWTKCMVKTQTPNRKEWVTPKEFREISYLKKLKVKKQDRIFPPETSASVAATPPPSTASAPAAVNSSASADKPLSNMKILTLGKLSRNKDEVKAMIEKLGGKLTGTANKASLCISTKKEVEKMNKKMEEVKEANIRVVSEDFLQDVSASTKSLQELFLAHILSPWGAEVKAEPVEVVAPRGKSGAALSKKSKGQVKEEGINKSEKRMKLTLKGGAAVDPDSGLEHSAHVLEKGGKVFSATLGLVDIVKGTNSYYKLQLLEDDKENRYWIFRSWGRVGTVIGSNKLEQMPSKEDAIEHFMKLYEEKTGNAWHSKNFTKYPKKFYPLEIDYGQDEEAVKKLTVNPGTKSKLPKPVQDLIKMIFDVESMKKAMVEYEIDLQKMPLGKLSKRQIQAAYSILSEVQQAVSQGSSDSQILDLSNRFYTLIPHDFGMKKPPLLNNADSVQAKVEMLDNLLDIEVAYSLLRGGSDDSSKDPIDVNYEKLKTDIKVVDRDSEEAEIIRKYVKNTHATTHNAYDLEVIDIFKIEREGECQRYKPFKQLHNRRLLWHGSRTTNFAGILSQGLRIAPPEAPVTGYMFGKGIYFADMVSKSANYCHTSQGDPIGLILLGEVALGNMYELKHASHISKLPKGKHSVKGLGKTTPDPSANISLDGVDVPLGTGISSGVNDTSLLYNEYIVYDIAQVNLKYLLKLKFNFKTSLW

SMILES | IC50 (MDA-MB-231 cells) [µM] | IC50 (MDA-MB-468 cells) [µM] | IC50 (MCF-7 cells) [µM] | IC50 (MDA-MB-436 cells) [µM] | IC50 (recombinant HDAC6) [µM] | IC50 (recombinant HDAC1) [µM] | IC50 (PARP2) [µM] | IC50 (PARP1) [µM] | mRNA levels of CCL5 and CXCL10 (CCL5 and CXCL10 mRNA) | IC50 (MCF-10A cells) [µM] | clonogenicity ([1]; BRCA1- and HRR-deficient MDA-MB-436 cells) | clonogenicity ([1]; MDA-MB-231 and MDA-MB-468 cells) | RAD51 expression (RAD51)
Nc1ccccc1NC(=O)CN1CCN(C(=O)c2cc(Cc3n[nH]c(=O)c4ccccc34)ccc2F)CC1 [Compound B401] | – | – | – | – | > 10 | > 10 | – | – | – | – | – | – | –
Nc1ccccc1NC(=O)Cc1ccc(CN2CCN(C(=O)c3cc(Cc4n[nH]c(=O)c5ccccc45)ccc3F)CC2)cc1 [Compound B201] | 0.38 ± 0.08 | 1.35 ± 0.55 | 5.3 ± 1.23 | 0.97 ± 0.73 | > 10 | 0.06 | 0.0138 | 0.00755 | – | 14 ± 2.45 | – | – | –
Nc1ccccc1NC(=O)CCN1CCN(C(=O)c2cc(Cc3n[nH]c(=O)c4ccccc34)ccc2F)CC1 [Compound B501] | – | – | – | – | > 10 | > 10 | – | – | – | – | – | – | –
Nc1cc(F)ccc1NC(=O)CN1CCN(C(=O)c2cc(Cc3n[nH]c(=O)c4ccccc34)ccc2F)CC1 [Compound B402] | – | – | – | – | > 10 | > 10 | – | – | – | – | – | – | –
Nc1cc(F)ccc1NC(=O)Cc1ccc(CN2CCN(C(=O)c3cc(Cc4n[nH]c(=O)c5ccccc45)ccc3F)CC2)cc1 [Compound B202] | 0.46 ± 0.12 | 0.56 ± 0.1 | 15.6 ± 3.52 | 0.65 ± 0.14 | > 10 | 0.16 | 0.0342 | 0.0103 | – | 9.83 ± 0.75 | – | – | –
Nc1ccccc1NC(=O)/C=C/c1ccc(CN2CCN(C(=O)c3cc(Cc4n[nH]c(=O)c5ccccc45)ccc3F)CC2)cc1 [Compound B101] | 0.41 ± 0.01 | 0.3 ± 0.05 | 3.62 ± 1.21 | 0.53 ± 0.08 | > 10 | 0.12 | 0.00408 | 0.0132 | – | 1.45 ± 0.09 | – | – | –
Nc1cc(F)ccc1NC(=O)c1ccc(CNC(=O)/C=C/c2cccnc2)cc1 [Chidamide, chidamide, reference compound] | 2.34 ± 0.92 | 0.75 ± 0.22 | 4.6 ± 0.78 | 4.15 ± 0.92 | – | – | – | – | – | > 50 | – | – | reduced the expression of RAD51
Nc1ccccc1NC(=O)CCc1ccc(CN2CCN(C(=O)c3cc(Cc4n[nH]c(=O)c5ccccc45)ccc3F)CC2)cc1 [Compound B301] | 1.96 ± 0.63 | 1.75 ± 0.37 | 3.53 ± 1.11 | 1.73 ± 0.82 | > 10 | > 10 | 0.0704 | 0.0114 | – | 30.1 ± 9.8 | – | – | –

Second part, led by results:

IC50 (MDA-MB-231 cells) [µM] | IC50 (MDA-MB-468 cells) [µM] | IC50 (MCF-7 cells) [µM] | IC50 (MDA-MB-436 cells) [µM] | IC50 (recombinant HDAC6) [µM] | IC50 (recombinant HDAC1) [µM] | IC50 (PARP2) [µM] | IC50 (PARP1) [µM] | SMILES | mRNA levels of CCL5 and CXCL10 (CCL5 and CXCL10 mRNA) | IC50 (MCF-10A cells) [µM] | clonogenicity ([1]; BRCA1- and HRR-deficient MDA-MB-436 cells) | clonogenicity ([1]; MDA-MB-231 and MDA-MB-468 cells) | RAD51 expression (RAD51)
3.24 ± 2.2 | 14.5 ± 2.44 | > 25 | 8.08 ± 2.02 | – | – | – | – | O=C(c1cc(Cc2n[nH]c(=O)c3ccccc23)ccc1F)N1CCN(C(=O)C2CC2)CC1 [Olaparib, olaparib, reference compound] | rise in the mRNA levels of CCL5 and CXCL10 | 28 ± 3.48 | reduced the clonogenicity | this effect was not observed | –
– | – | – | – | > 10 | > 10 | – | – | Nc1cc(F)ccc1NC(=O)CCN1CCN(C(=O)c2cc(Cc3n[nH]c(=O)c4ccccc34)ccc2F)CC1 [Compound B502] | – | – | – | – | –
– | – | – | – | > 10 | > 10 | – | – | Nc1cc(F)ccc1NC(=O)CCCN1CCN(C(=O)c2cc(Cc3n[nH]c(=O)c4ccccc34)ccc2F)CC1 [Compound B602] | – | – | – | – | –
– | – | – | – | > 10 | > 10 | – | – | Nc1ccccc1NC(=O)CCCN1CCN(C(=O)c2cc(Cc3n[nH]c(=O)c4ccccc34)ccc2F)CC1 [Compound B601] | – | – | – | – | –
